The values below are quoted from earlier work in US6514536B2, “Drug preparations for treating sexual dysfunction” (L.A.M. Pharmaceutical Corporation, priority 1998, dated 2003).

Structures are written as SMILES.

For data set [1] the following is noted: most abundant metabolite in plasma.
The subject of data set [2] is isolated corpus cavernosum and corpus spongiosum preparations. Conditions: in vitro.
Data set [3] concerns erection. Conditions: men who failed prior intracavernous therapy with papaverine and phentolamine.
The test system of data set [4] is penile blood flow. As to conditions: duplex sonography.
Data set [5] deals with blood pressure. Conditions: intravenous doses of 1 to 10 micrograms per kilogram of body weight.
Data set [6] deals with isolated cavernosal artery segments. Conditions: segments pre-contracted with noreginephrine or prostaglandin E2α.

For `CCCCCC(=O)CC[C@H]1[C@H](O)CC(=O)[C@@H]1CCCCCCC(=O)O` [DKH-PGE1, 13,14-dihydro,15-keto PGE1], the biological activity entry in data set [1] is “biologically inactive”.

`CCCCC[C@H](O)/C=C/[C@H]1[C@H](O)CC(=O)[C@@H]1CCCCCCC(=O)O` [PGE1, prostaglandin E1]: the smooth muscle relaxation result in data set [2] is “dose-dependent smooth muscle relaxation”. For the same compound, in data set [3], the “share of men achieving adequate erections” value was “two-thirds”. The “increase in penile blood flow compared with papaverine” value in data set [4] is recorded as “at least as effective as papaverine”. The “effect on blood pressure” value in data set [5] is listed as “lower blood pressure”. Also, the vasodilation result in data set [6] was “vasodilation has been demonstrated”.
